Four compounds from patent publication US12553889B2, “Small molecules targeting the intrinsically disordered structural ensemble of α-synuclein protect against diverse α-synuclein mediated dysfunctions” (The Regents of the University of California, priority 2019, dated 2026) can be followed below.

Assay [1] has as its system αSyn. The assay is described as follows: αSyn split NanoBit luciferase (Nluc) oligomerization assay. The settings on record: 100 μM compound, 10 μM of each tagged αSyn; for activity in NanoBit complementation αSyn oligomerization assay: full time-course. It is filed as biochemical, human. Here is the method: Ten μM αSyn-LgBiT, 10 μM αSyn-SmBiT, and Hsp70 (at 0, 10, or 30 μM), 1 mM MgCl2 and 1 mM ADP were mixed in PBS at pH 7.4 and incubated at 37° C. in a thermal cycler (BioRad DNA Engine PTC-200). At 0, 3, 6, 12 and 24 hours. The NanoBit luciferase activity was quantified using a NanoFuel® GLOW Assay for Oplophorus Luciferases (NanoLight) according to the manufacturer's instructions and read on SpectraMax L Microplate Reader (Molecular Devices) with an 8 minute delay after the addition of substrate and 1 sec integration time reading each well. The luciferase activity was normalized to the reaction without Hsp70 at 24 hour time point.
• 1. αSyn-LgBiT or LgBiT is mixed with αSyn-SmBiT at 10 μM of each (PBS pH 7.4); • 2. Incubate at 37 degree for 24 hours in PCR machine; • 3. Take 10 μL samples at 0/3/6/12/24 hours; • 4. Luminescence measurement is done using Luminometor (with injector) using h-CTZ (40 uM), 2 sec delay, 3 sec integration. Protocol: • 1. αSyn-LgBiT (10 uM) and αSyn-SmBiT (10 uM) are mixed in PBS buffer (pH 7.4); • 2. The reaction mixture is incubated in 37° C. incubator either being shaken (1000 rpm) or still; • 3. Samples are taken from the reaction at 0/3/12/24/36/48/72/96/120/144 h for ThT and Nluc assays; NLuc Assay:
• 1. Mix fusion proteins in PBS buffer (pH 7.4) to create the following three master mixes:
• 2. Dispense 10 μL protein master mix into 384-well plate (Greiner, 781904) using Mantis; • Col 1 & 23: Positive control • Col & 24: Negative control • Col 3-22: Reactions • 3. […] Seal plates using sticky foil (E&K Scientific T790080); • 5. Incubate the sealed plates at 37° C. with heat blocks above and beneath the sealed plates, use dummy plates around the reaction plate, incubate at 37° C. incubator in room N401 for 0-24 h; Day 2. I. Prepare the Plates and Substrate • 6. Cool the plates at room temp for 30 min after 24-hour incubation; • 7. Spin the plates at 500×g for 1 min; • 8. Make substrate mix (NanoLight Cat #325), keep it in darkness; II. Prepare the Plate Reader • 9. Turn on SpectraMaxL, make sure the aperture is in the right position (96/384 well):
To change: Control>Change Aperture>Lift the top panel>Press down the button and turn it to the right position>Put the panel down • 10. Put the P-injector tube into the H2O bottle, wash the injector: Control>Prime P-injector for 30× injections • 11. Remove the P-injector and leave it in the air, then empty the injector: Control>Prime P-injector for 30× injections; • 12. Put the P-injector from the substrate tube, prime the injector: Control>Prime P-injector for 20× injections III. Read the Plates • 13. Nluc assay: • Sample vol: 10 μl (dispensed on day 1) • Substrate vol: 25 μl (NanoLight Cat #325)
The SpectraMaxL will do two rounds of reads, the first round will inject substrates, the second round will read entire 384-well plate and make sure the interval between inject and read for each well is exactly the same (in this protocol, the interval is 8 min exactly)

In assay [2] the target is αSyn (Homo sapiens, UniProt P37840). The assay is described as follows: Cellular oligomerization assay (split Gaussia luciferase complementation in H4 cells). The assay is classed as cell-based. The settings on record: maximal concentrations not showing toxicity, 0.3% DMSO. Here is the method:
H4 neuroglioma cells (HTB-148; ATCC) were passaged in DME containing 10% fetal calf serum (FCS). They were plated into 10 cm dishes at 7.5×10^5 cells per dish and the following day transfected with DNA and Fugene (Promega, Madison, WI) at a ratio of 3:1 with 7 μg each of Syn-Luc1 (S1) and Syn-Luc2 (S2) plasmids, which are also referred to as syn-hGluc(1) and syn-hGLuc(2) respectively (see Outeiro, T. F. et al. Plos One 3, e1867, incorporated herein by reference in entirety) and 3 μg of red firefly expressing plasmid (pCMV-Red firefly Luc, ThermoFisher, Waltham, MA) per dish according to the manufacturer's directions. S1 and S2 plasmids express αSyn containing split Gaussia luciferase with either the N-terminal fragment (S1) or C-terminal fragment (S2) attached to the C-terminus of αSyn. After 24 hours, the DNA containing media was removed and cells were fed fresh DME media containing 10% FCS. […] Gaussia luciferase activity was measured in the dark 0.1 sec after injection of 100 μl/well of […] coelenterazine, substrate (NanoLight, Pinetop, AZ) using a 2 sec integration on a Veritas Microplate Luminometer (Promega, Madison, WI). The cells were subsequently assayed for red Firefly activity using the ONE-Glo™ Luciferase Assay System kit (Promega, Madison, WI) on a Spectramax M5 (Molecular Devices, San Jose, CA) plate reader as a normalization measure. […]

Entries after “also recorded” stand apart in the source; their conditions may differ.

In the case of `CNC(=O)c1cc(O)ccc1NC` [Compound 581858, 2-methylamino-5-hydroxy-N-methylbenzamide], in the assay on αSyn [1], the “impact relative to 576755 in NanoBit complementation assay” value was “slightly less impact than compound 576755” and the “activity in NanoBit complementation αSyn oligomerization assay” value (“activity” below) is “active”.
Take `CNC(=O)c1cc(O)ccc1N` [Compound 576755, 2-amino-5-hydroxy-N-methylbenzamide]: the “activity” value in the assay on αSyn [1] is reported as “active”. On αSyn [2], the “impact on cellular αSyn oligomerization” value is listed as “reproducibly reduced cellular oligomers; also recorded: reduces αSyn oligomerization”.
Turning to `CNC(=O)c1cc(O)ccc1N(C)C` [Compound 581823, 2-dimethylamino-5-hydroxy-N-methylbenzamide], the “activity” value with αSyn [1] is given as “active”.
The same measure, in the same setting: in the case of `CNC(=O)c1cc(O)ccc1O` [Compound 583854, 2,5-dihydroxy-N-methylbenzamide] it was “active”.
